Source: a compilation of properties of binary mixtures (doi:10.1007/s10953-016-0465-y)

Assay: xn = mol fraction of the nth substance listed
Conditions: 101 kPa

Compound: CCOS(=O)(=O)[O-].CC[n+]1ccn(C)c1 + COCCO
- speed of sound (298.15 K, x1 = 0.049): 1381 m/s
- speed of sound (298.15 K, x1 = 0.0819): 1403 m/s
- speed of sound (298.15 K, x1 = 0.1453): 1441 m/s
- speed of sound (298.15 K, x1 = 0.1765): 1457.4 m/s
- speed of sound (298.15 K, x1 = 0.2557): 1494.5 m/s
- speed of sound (298.15 K, x1 = 0.5453): 1592.2 m/s
- speed of sound (298.15 K, x1 = 0.6466): 1617.7 m/s
- speed of sound (298.15 K, x1 = 0.7562): 1641.6 m/s
- speed of sound (298.15 K, x1 = 0.8206): 1654 m/s
- speed of sound (298.15 K, x1 = 0.951): 1674.9 m/s
- speed of sound (298.15 K, x1 = 1): 1680.8 m/s
- speed of sound (308.15 K, x1 = 0.1453): 1412 m/s
- speed of sound (308.15 K, x1 = 0.1765): 1429 m/s
- speed of sound (308.15 K, x1 = 0.3386): 1500.6 m/s
- speed of sound (308.15 K, x1 = 0.4472): 1537.2 m/s
- speed of sound (308.15 K, x1 = 0.5453): 1565.7 m/s
- speed of sound (308.15 K, x1 = 0.8206): 1629.2 m/s
- speed of sound (308.15 K, x1 = 0.8868): 1641 m/s
- speed of sound (308.15 K, x1 = 0.951): 1650.6 m/s
- speed of sound (308.15 K, x1 = 1): 1656.4 m/s
- speed of sound (318.15 K, x1 = 0.049): 1316.1 m/s
- speed of sound (318.15 K, x1 = 0.0819): 1340.4 m/s
- speed of sound (318.15 K, x1 = 0.1453): 1381.9 m/s
- speed of sound (318.15 K, x1 = 0.1765): 1399.5 m/s
- speed of sound (318.15 K, x1 = 0.2557): 1438.7 m/s
- speed of sound (318.15 K, x1 = 0.3386): 1472.9 m/s
- speed of sound (318.15 K, x1 = 0.4472): 1510.3 m/s
- speed of sound (318.15 K, x1 = 0.5453): 1539.3 m/s
- speed of sound (318.15 K, x1 = 0.6466): 1565.9 m/s
- speed of sound (318.15 K, x1 = 0.7562): 1591.4 m/s
- speed of sound (318.15 K, x1 = 0.8206): 1604.6 m/s
- speed of sound (318.15 K, x1 = 0.951): 1626.6 m/s
- speed of sound (328.15 K, x1 = 0.049): 1282.9 m/s
- speed of sound (328.15 K, x1 = 0.0819): 1308 m/s
- speed of sound (328.15 K, x1 = 0.1765): 1369.2 m/s
- speed of sound (328.15 K, x1 = 0.2557): 1410 m/s
- speed of sound (328.15 K, x1 = 0.4472): 1484.3 m/s
- speed of sound (328.15 K, x1 = 0.5453): 1514.2 m/s
- speed of sound (328.15 K, x1 = 0.6466): 1541.3 m/s
- speed of sound (328.15 K, x1 = 0.7562): 1567 m/s
- speed of sound (328.15 K, x1 = 0.8206): 1580.4 m/s
- speed of sound (328.15 K, x1 = 0.951): 1602.8 m/s
- speed of sound (328.15 K, x1 = 1): 1608.9 m/s

Compound: COCCO + CCOS(=O)(=O)[O-].CC[n+]1ccn(C)c1
- speed of sound (298.15 K, x2 = 0): 1344 m/s
- speed of sound (308.15 K, x2 = 0): 1309.2 m/s
- speed of sound (318.15 K, x2 = 0): 1274.5 m/s
- speed of sound (328.15 K, x2 = 0): 1240.1 m/s
